Measured values from the NIST ThermoML archive (doi:10.1021/je050202g).

What was measured:
[1] = cn = amount concentration of the nth substance listed, in mol/dm3; details: 101.3 kPa, Liquid; for viscosity: Capillary tube (Ostwald / Ubbelohde) method
[2] = wn = mass fraction of the nth substance listed; details: Wilhelmy Plate method
[3] = Wilhelmy Plate method

C1CNCCN1 [piperazine] + O
Details	mass density, [1] [kg/m3]	surface tension liquid-gas, [2] [mN/m]	viscosity, [1] [mPa·s]
293.15 K, c1 = 0.623	1000.46	–	1.26
293.15 K, c1 = 1.006	1002.49	–	1.52
293.15 K, c1 = 1.49	1005.4	–	1.87
293.15 K, w1 = 0.043	–	71.7	–
293.15 K, w1 = 0.086	–	70.1	–
293.15 K, w1 = 0.129	–	69.3	–
298.15 K, c1 = 0.623	999.37	–	1.11
298.15 K, c1 = 1.006	1001.3	–	1.31
298.15 K, c1 = 1.49	1004.11	–	1.62
298.15 K, c1 = 1.686	1005.39	–	1.8
303.15 K, c1 = 0.623	997.94	–	0.98
303.15 K, c1 = 1.006	999.79	–	1.15
303.15 K, c1 = 1.49	1002.47	–	1.4
303.15 K, c1 = 1.686	1003.66	–	1.56
313.15 K, c1 = 0.623	994.25	–	0.79
313.15 K, c1 = 1.006	996.03	–	0.92
313.15 K, c1 = 1.49	998.49	–	1.09
313.15 K, c1 = 1.686	999.49	–	1.2
313.15 K, w1 = 0.043	–	68.5	–
313.15 K, w1 = 0.086	–	67.8	–
313.15 K, w1 = 0.129	–	67.6	–
323.15 K, c1 = 0.623	989.76	–	0.65
323.15 K, c1 = 1.006	991.53	–	0.75
323.15 K, c1 = 1.49	993.86	–	0.88
323.15 K, c1 = 1.686	994.74	–	0.96

O [water] + C1CNCCN1
[2], w2 = 0
Details	surface tension liquid-gas [mN/m]
293.15 K	72.7
313.15 K	69.8

O [water]
[3]
Details	surface tension liquid-gas [mN/m]
293.15 K	72.7
313.15 K	69.8
